The values below come from paper PMC9936582, “Sulfamate Acetamides as Self-Immolative Electrophiles for Covalent Ligand-Directed Release Chemistry” (Journal of the American Chemical Society, 2023).

Data set [1] is described as follows: Metabolic stability in human liver microsomes. The note with it: 5 min incubation.
The target of the next data set is T1, BTK (Mus musculus, UniProt P35991).
T1 construct: the dissected spleens were extracted with RIPA buffer and incubated with an ibrutinib alkyne analogue; from tissue; host or cells: spleen of mice with adoptively transferred TCL1 leukemic splenocytes
Description: BTK engagement in treated mice spleens. As to conditions: spleen lysates, ibrutinib alkyne analogue, TAMRA-azide. The data set is classed as in vivo. The protocol:
(§1) We tested compound 3c in the TCL1 adoptive transfer mouse model for CLL.[42] In this experiment, immune-competent healthy mice received an adoptive transfer of 4 × 10^7 TCL1 splenocytes obtained from full leukemic TCL1 transgenic mice by intravenous injection (Figure 4D). IgM+/CD5+ cells were monitored weekly, and treatment (or mock treatment) was started 4 weeks after transplantation when CD5+ were > 30% in the blood. The mice received a solution containing sulfamate 3c (0.16 mg/mL in 1% cyclodextrin water) ad libitum in the drinking water. […] Moreover, spleens were isolated from the mice after 2 weeks of treatment and quantified.
Pellets of harvested spleens were lysed using RIPA buffer (Sigma, R0278) and clarified at 21,000g for 15 min at 4 °C, and protein concentration was determined using BCA protein assay (Thermo Scientific, 23225). Lysates were diluted to 2 mg/mL, 50 μL per sample, and incubated for 1 h in room temperature with 1 μM probe 4 to label BTK. Lysates were then clicked to TAMRA-azide and imaged using ChemiDoc MP (546 nm) as described in the in-gel fluorescence protocol.

A further data set deals with IgM+/CD5+ cells. Briefly: TCL1 adoptive transfer mouse model for CLL. The data set is classed as in vivo. As to conditions: after 2 weeks of treatment, vs untreated mice. The protocol:
as §1
TCL1 mice for this model were generated as previously described.[42] For this experiment, TCL1 mice approximately 12 months of age with a malignant cell population higher than 60% in the PB were sacrificed. Their spleens were excised, and 4 × 10^7 cells resuspended in PBS^–/– were injected into the tail vein of 6 week old recipient mice. Progression of the disease was followed in the PB by using flow cytometry for the +IgM/+CD5 population. Mice with >30% IgM+/CD5+ cells were considered to be diseased and were used for further analysis.
Isolated cells were stained using specific antibodies (IgM-PE, CD5-APC, BioLegend) in staining buffer (0.5% bovine serum albumin in phosphate-buffered saline) for 30 min in 4 °C in dark then washed twice. […]

The next data set has as its system Mino cells. Briefly: isoDTB ABPP in Mino cells. The data set is classed as cell-based, human. As to conditions: for isoDTB-ABPP H/L Ratio: mino cells, 1 µM compound, 2h.

Entries after “also recorded” stand apart in the source; their conditions may differ.

T1 sequence (P35991 whole entry): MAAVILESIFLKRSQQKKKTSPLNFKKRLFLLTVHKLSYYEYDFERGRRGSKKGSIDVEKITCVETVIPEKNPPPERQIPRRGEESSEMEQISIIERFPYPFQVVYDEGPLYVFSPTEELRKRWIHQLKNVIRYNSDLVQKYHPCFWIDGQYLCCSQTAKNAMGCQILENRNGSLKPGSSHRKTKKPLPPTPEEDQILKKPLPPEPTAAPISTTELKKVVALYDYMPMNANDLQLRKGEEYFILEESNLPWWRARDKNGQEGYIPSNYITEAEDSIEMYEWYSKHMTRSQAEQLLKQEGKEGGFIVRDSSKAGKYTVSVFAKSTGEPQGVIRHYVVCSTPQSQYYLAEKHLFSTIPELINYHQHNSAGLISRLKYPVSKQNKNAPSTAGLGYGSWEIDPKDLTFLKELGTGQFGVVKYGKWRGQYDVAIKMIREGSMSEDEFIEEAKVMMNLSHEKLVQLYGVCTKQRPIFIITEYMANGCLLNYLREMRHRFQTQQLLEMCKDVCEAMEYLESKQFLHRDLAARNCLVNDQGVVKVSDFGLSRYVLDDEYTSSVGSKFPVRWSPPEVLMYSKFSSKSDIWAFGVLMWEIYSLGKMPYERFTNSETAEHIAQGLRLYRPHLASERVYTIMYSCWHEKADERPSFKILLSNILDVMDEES
Description for Mino cells: This was followed by a reaction with biotin-azide using CuAAC, enrichment of the labeled proteins, and their quantification by tryptic digestion and LC/MS/MS analysis.
The preparation of IsoDTB-ABPP samples was performed essentially as described in Zanon et al.2.
Experiments were conducted in quadruplicates. […] For lysis, samples containing 10 million cells were dispersed in 0.5 mL of RIPA buffer (Sigma, R0278),
sample was diluted to 1.7 mg/mL using PBS. To each sample, 5 µL of 10 mM IA-alkyne was added, followed by 1 h incubation at room temperature in the dark. 10 µL of 5 mM DesThioTag was added (Light for the compound treated samples, heavy for the DMSO-treated samples), followed by 18 µL of CuSO4:THPTA (100 mM), and the click reaction was initiated by addition of 15 µL of 150 mM sodium ascorbate (freshly dissolved in water). The samples were incubated on a rotary shaker for 1 h at room temperature.
mL water on ice, vortexed and centriduged at 3200 g for 10 min at 4°C. The top layer was aspirated, and 3 mL methanol was added, followed by centrifugation and aspiration of the supernatant. The pellets were air dried and stored at -80°C until the following treatment. The pellets were resuspended in 0.3 mL of 8 M urea freshly dissolved in PBS using probe sonication (8 sec total at 40% amplitude, 1 sec on/2 sec off, at room temperature). Following the resuspension, the samples were diluted with 1 mL of PBS. Then each sample was mixed with 1.3 mL of slurry containing 110 µL of streptavidin agarose beads (Thermo
The samples were incubated with rotation for 3 h at room temperature. The beads were pelleted by centrifugation at 2000 g for 2 min, transferred to spin columns, and washed 3 times with 0.1% IGEPAL/PBS, 3 times PBS, and 3 times water.
The beads were then suspended in 8 M Urea/50 mM ammonium bicarbonate, and 15 µL of 31 mg/mL DTT […]

In the case of `CNS(=O)(=O)OCC(=O)N1CCC[C@@H](n2nc(-c3ccc(Oc4ccccc4)cc3)c3c(N)ncnc32)C1` [3c], the compound remaining intact entry in data set [1] is “over 30%”. For the same compound, on BTK, the “BTK engagement in vivo (probe labeling of spleen lysate)” value is reported as “do not show probe labeling”. Further, the spleen size entry in the data set with IgM+/CD5+ cells is on record as “decreased spleen size; also recorded: visually smaller”. Besides, in the data set on Mino cells (Mino cells, 1 μM, 2 h), the “number of off-targets (H/L ratio > 2)” value was determined as 10. Besides, the “isoDTB-ABPP H/L Ratio” value in the data set on Mino cells (P27708_C379) was 5.926; in the data set on Mino cells (P48643_C377) it was 5.696.
